Laboratory results reported in patent US11155550B2, “Histone deacetylase inhibitors and methods of use thereof” (Reaction Biology Corp., priority 2018, dated 2021).

Target: T1, Human HDAC8 (Homo sapiens, UniProt Q9BY41)
T1 construct: full-length with a C-terminal His tag, MW=46.4 kDa; His tag (C); made in house; host or cells: baculovirus expression system
T1 sequence (Q9BY41 1-377): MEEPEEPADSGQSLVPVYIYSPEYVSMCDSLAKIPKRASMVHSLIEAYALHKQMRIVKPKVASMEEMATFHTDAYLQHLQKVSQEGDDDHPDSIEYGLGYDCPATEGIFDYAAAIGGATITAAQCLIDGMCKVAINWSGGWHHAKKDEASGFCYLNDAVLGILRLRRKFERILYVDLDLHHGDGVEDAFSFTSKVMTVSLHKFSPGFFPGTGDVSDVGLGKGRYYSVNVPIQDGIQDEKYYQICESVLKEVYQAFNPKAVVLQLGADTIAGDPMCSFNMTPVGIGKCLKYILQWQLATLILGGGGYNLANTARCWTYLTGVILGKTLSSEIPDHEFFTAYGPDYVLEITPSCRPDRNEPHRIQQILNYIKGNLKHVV
Assay: Biochemical HDAC enzymatic assay, HDAC8
Conditions: incubation time 10 min
Procedure: Incubation time for HDAC1/2 is 120 min, and 10 min for other HDACs.
Human HDAC8 (GenBank Accession No. NM_018486), full-length with a C-terminal His tag, MW=46.4 kDa, was expressed in a baculovirus expression system.
(§1) • I. Compound handling: Testing compounds were dissolved in 100% DMSO to a specific concentration. The serial dilution was conducted by epMotion 5070 in DMSO. • II. HDAC reaction buffer: 50 mM Tris-HCl, pH8.0, 137 mM NaCl, 2.7 mM KCl, and 1 mM MgCl2, Added fresh: 1 mg/ml BSA, 1% DMSO. • III. Substrate: Fluorogenic HDAC General Substrate for HDAC1, 2, 3, 6, 10, 11 ans Sirt1, 2 and 3: Arg-His-Lys-Lys(Ac); HDAC8 only substrate: Arg-His-Lys(Ac)-Lys(Ac); Class2A Substrate (HDAC4, 5, 7 and 9): Acetyl-Lys(trifluoroacetyl)-AMC; Sirt5 substrate: Ac-Lys(succinyl)-AMC. • IV. General Reaction Procedure: (Standard IC50 determination) • a. Delivered 2× enzyme in wells of reaction plate except No Enzyme (No En) control wells. Add buffer in No En wells. • b. Delivered compounds in 100% DMSO into the enzyme mixture by Acoustic technology (Echo550; nanoliter range). Spin down and pre-incubation. • c. Delivered 2× Substrate Mixture (Fluorogenic HDAC Substrate and co-factor (500 μM of Nicotinamide adenine dinucleotide (NAD^+) in all Sirt assay) in all reaction wells to initiate the reaction. Spin and shake. • d. Incubated for 1-2 hr. at 30° C. with seal. • e. Added Developer with Trichostatin A (or TMP269 or NAD^+) to stop the reaction and to generate fluorescent color. • f. Fluorescence was read (excitatory, 360; emission, 460) using the EnVision Multilabel Plate Reader (Perkin Elmer) • g. Endpoint reading was taken for analysis after the development reaches plateau. • V. Data Analysis: The percentages of enzyme activity (relative to DMSO controls) and IC50 values were calculated using the GraphPad Prism 4 program based on a sigmoidal dose-response equation.
The inhibitory activities of HDAC of compounds of the invention were determined using biochemical HDAC assays. Compounds were tested at the indicated doses in the biochemical assays of HDAC1, HDAC2, HDAC3, HDAC4, HDAC5, HDAC6, HDAC7, HDAC8, HDAC9, HDAC10, or HDAC11 enzyme. The curve fit and IC50 values were calculated using the GraphPad Prism 4 program based on a sigmoidal dose-response equation.
as §1, with “[…]” for “μM”, “equation. […]” for “equation.”

Row | SMILES | IC50 (Table 2) [µM] | IC50 (Table 1) [µM]
1 | O=C(NO)c1ccc(CN2C(=O)C3(CCOC3)c3ccccc32)cc1 (centres unmarked) [Compound Example 9] | 1.92 | –
2 | O=C(NO)c1ccc(CN2C(=O)c3ccccc3C23CCNCC3)cc1 [Compound Example 10, N-hydroxy-4-((3-oxospiro[isoindoline-1,4′-piperidin]-2-yl)methyl)benzamide] | 0.71 | –
3 | CN(C)C(=O)N1CCC2(CC1)c1ccccc1C(=O)N2Cc1ccc(C(=O)NO)cc1 [Compound Example 11, 2-(4-(hydroxycarbamoyl)benzyl)-N,N-dimethyl-3-oxospiro[isoindoline-1,4′-piperidine]-1′-carboxamide] | 0.52 | –
4 | O=C(NO)c1ccc(CN2C(=O)c3ccccc3C23CCN(C2CC2)CC3)cc1 [Compound Example 12, 4-((1′-cyclopropyl-3-oxospiro[isoindoline-1,4′-piperidin]-2-yl)methyl)-N-hydroxybenzamide] | 1.2 | –
5 | Nc1ccc(-c2cccs2)cc1NC(=O)c1ccc(CN2C(=O)CCC23CCNCC3)cc1 [Example 2, N-(2-amino-5-(thiophen-2-yl)phenyl)-4-((2-oxo-1,8-diazaspiro[4.5]decan-1-yl)methyl)benzamide] | – | > 20
6 | CN1CCC2(CC1)CN(c1ccc(C(=O)Nc3cc(-c4cccs4)ccc3N)cn1)C(=O)O2 [Example 4, N-(2-amino-5-(thiophen-2-yl)phenyl)-6-(8-methyl-2-oxo-1-oxa-3,8-diazaspiro[4.5]decan-3-yl)nicotinamide] | – | > 20

The remaining lines, values ahead:

Row | IC50 (Table 2) [µM] | IC50 (Table 1) [µM] | SMILES
7 | 0.4 | – | O=C(NO)c1ccc(CN2C(=O)c3ccccc3C23OCCO3)cc1 [Compound Example 8, N-hydroxy-4-((3-oxospiro[isoindoline-1,2′-[1,3]dioxolan]-2-yl)methyl)benzamide]
8 | – | > 20 | Nc1ccc(-c2cccs2)cc1NC(=O)c1ccc(CN2C(=O)CCCC23CNC3)cc1 [Example 1, N-(2-amino-5-(thiophen-2-yl)phenyl)-4-((6-oxo-2,5-diazaspiro[3.5]nonan-5-yl)methyl)benzamide]
9 | – | > 10 | Nc1cc(F)ccc1NC(=O)c1ccc(CN2C(=O)CCCC23CNC3)cc1 [Example 3, N-(2-amino-4-fluorophenyl)-4-((6-oxo-2,5-diazaspiro[3.5]nonan-5-yl)methyl)benzamide]
10 | – | > 20 | Nc1ccc(-c2ccc(F)cc2)cc1NC(=O)c1ccc(N2CC3(CCOCC3)OC2=O)nc1 [Example 5, N-(4-amino-4′-fluoro-[1,1′-biphenyl]-3-yl)-6-(2-oxo-1,8-dioxa-3-azaspiro[4.5]decan-3-yl)nicotinamide]
11 | – | > 20 | Nc1ccc(-c2cccs2)cc1NC(=O)c1ccc(N2CC3(CCNCC3)CCC2=O)nc1 [Example 6, N-(2-amino-5-(thiophen-2-yl)phenyl)-6-(3-oxo-2,9-diazaspiro[5.5]undecan-2-yl)nicotinamide]
